For data set [1] the following is noted: instrument: TW, calibrated with polyalanine.
The conditions of data set [2]: [M-H]-; instrument: TW; calibrated with phosphatidylcholines (ESI+) and phosphatidylethanolamines (ESI-).
For data set [3] the following is noted: [M-H]-; instrument: DT; stepped-field.
The conditions of data set [4]: instrument: DT, single field, calibrated with Agilent tune mix (Agilent).
The conditions of data set [5]: instrument: TW, calibrated with phosphatidylcholines (ESI+) and phosphatidylethanolamines (ESI-).

The structures appear in SMILES notation. Values joined by “and” are separate entries in the source; they are usually repeats but may differ in a detail not shown here. Equal entries are not always repeated.

The text below walks through data of the C3SDB collision cross section collection.

Regarding `COc1cc2c(c3oc(=O)c4c(c13)CCC4=O)[C@@H]1CCO[C@@H]1O2` [Aflatoxin B2], the “collision cross section (N2)” value in data set [1] ([M+H]+) is 162 Å²; in data set [1] ([M+K]+), 181.4 Å²; in data set [1] ([M+Na]+), 176.8 Å².

Turning to `Cc1cc(O)cc2oc(=O)c3c(O)cc(O)cc3c12` [Alternariol], the “collision cross section (N2)” value in data set [1] ([M-H]-) came to 146 Å².

Consider `CC(C)[C@H]1OC(=O)[C@H](Cc2ccccc2)N(C)C(=O)[C@@H](C(C)C)OC(=O)[C@H](Cc2ccccc2)N(C)C(=O)[C@@H](C(C)C)OC(=O)[C@H](Cc2ccccc2)N(C)C1=O` [Beauvericin], for which the “collision cross section (N2)” value is 283.8 Å² in data set [1] ([M+H]+), 290.3 Å² in data set [1] ([M+K]+), 269 Å² in data set [1] ([M+NH4]+) and 287.4 Å² in data set [1] ([M+Na]+).

As for `CC[C@H](C)[C@H]1C(=O)O[C@H](C(C)C)C(=O)N(C)[C@@H]([C@@H](C)CC)C(=O)O[C@H](C(C)C)C(=O)N(C)[C@@H](C(C)C)C(=O)O[C@H](C(C)C)C(=O)N1C` [Enniatin A1], the “collision cross section (N2)” value was determined as 252.2 Å² in data set [1] ([M+H]+), 257.9 Å² in data set [1] ([M+K]+), 259 Å² in data set [1] ([M+NH4]+) and 258 Å² in data set [1] ([M+Na]+).

With `CC[C@H](C)[C@H]1C(=O)O[C@H](C(C)C)C(=O)N(C)[C@@H]([C@@H](C)CC)C(=O)O[C@H](C(C)C)C(=O)N(C)[C@@H]([C@@H](C)CC)C(=O)O[C@H](C(C)C)C(=O)N1C` [Enniatin A], the “collision cross section (N2)” value is listed as 257.9 Å² in data set [1] ([M+H]+), 264.7 Å² in data set [1] ([M+K]+), 264 Å² in data set [1] ([M+NH4]+) and 262.4 Å² in data set [1] ([M+Na]+).

For the molecule `CCCC[C@@H](C)[C@@H](OC(=O)C[C@@H](CC(=O)O)C(=O)O)[C@H](C[C@@H](C)C[C@H](O)CCCC[C@@H](O)C[C@H](O)[C@H](C)N)OC(=O)C[C@@H](CC(=O)O)C(=O)O` [Fumonisin B1], the figures for the “collision cross section (N2)” value in data set [1] ([M+H]+), in data set [1] ([M+K]+) and in data set [1] ([M+Na]+) were 258 Å², 269 Å² and 264.4 Å², respectively.

As for `CCCC[C@@H](C)[C@@H](OC(=O)CC(CC(=O)O)C(=O)O)[C@H](C[C@@H](C)C[C@H](O)CCCCCC[C@@H](O)[C@H](C)N)OC(=O)CC(CC(=O)O)C(=O)O` (stereo partly drawn) [Fumonisin B3], the figures for the “collision cross section (N2)” value in data set [1] ([M+H]+), in data set [1] ([M+K]+) and in data set [1] ([M+Na]+) were 258 Å², 264.5 Å² and 259.2 Å², respectively.

For the molecule `CCCC[C@@H](C)[C@@H](OC(=O)C[C@@H](CC(=O)O)C(=O)O)[C@H](C[C@@H](C)CCCCCCCC[C@H](O)[C@H](C)N)OC(=O)C[C@@H](CC(=O)O)C(=O)O` [Fumonisin B4], the “collision cross section (N2)” value in data set [1] ([M+H]+) stood at 255 Å²; in data set [1] ([M+K]+), 264.6 Å²; in data set [1] ([M+Na]+), 260.4 Å².

For the molecule `C=CC(C)(C)[C@@]12C=C(O)C(=O)N3/C(=C/c4cnc[nH]4)C(=O)N[C@]31N(OC)c1ccccc12` [Meleagrin], the “collision cross section (N2)” value in data set [1] ([M+H]+) is 201 Å².

Consider `COc1c(C)c2c(c(O)c1C/C=C(\C)CCC(=O)O)C(=O)OC2` [Mycophenolic acid], for which, in data set [1] ([M+NH4]+), the “collision cross section (N2)” value came to 176 Å².

Consider `CCCCCCCCCC/C=C\CCCCCCCCCC(=O)O[C@H](COC(=O)CCCCCCCCCCC)COP(=O)(O)O` [PA(16:0/18:1)], for which the “collision cross section (N2)” value in data set [2] is listed as 256.3 Å²; in data set [3], 259.2 Å².

In the case of `CCCCCCCC/C=C\CCCCCCCCCC(=O)O[C@H](COC(=O)CCCCCCCCCCC)COP(=O)(O)OC[C@@H](O)CO` [PG(32:1)], the “collision cross section (N2)” value amounted to 263.3 Å² in data set [2]; 263.3 Å² in data set [4] ([M-H]-); 270.4 Å² in data set [3]; 274.1 Å² in data set [5] ([M+Na]+); 262.5 Å² in data set [5] ([M-H]-).

`CCCCCCCCCCCCCCCCCCCC(=O)OC[C@H](COP(=O)(O)OC[C@@H](O)CO)OC(=O)CCCCCCCCCCCCC` [PG(34:0)]: the “collision cross section (N2)” value in data set [2] is reported as 270.8 Å²; in data set [3], 277.6 Å²; in data set [5] ([M+Na]+), 282.2 Å²; in data set [5] ([M-H]-), 269 Å².

Consider `CCCCCCCCCC/C=C\CCCCCCCCCC(=O)O[C@H](COC(=O)CCCCCCCCCCC)COP(=O)(O)OC[C@@H](O)CO` [PG(34:1)], for which the “collision cross section (N2)” value in data set [2] is 269.9 Å²; in data set [4] ([M+H]+), 286.8 Å²; in data set [4] ([M+NH4]+), 287.3 Å²; in data set [4] ([M-H]-), 270.2 Å²; in data set [5] ([M+Na]+), 281.1 Å²; in data set [5] ([M-H]-), 268.9 Å².

In the case of `CCCC/C=C\CCCCCCCC(=O)OC[C@H](COP(=O)(O)OC[C@@H](O)CO)OC(=O)CCCCCCCCC/C=C\CCCCCCCCCC` [PG(36:2)], the “collision cross section (N2)” value is 274.9 Å² in data set [2]; 288.9 Å² in data set [4] ([M+H]+); 286 Å² in data set [4] ([M+Na]+); 282.3 Å² and 281.9 Å² in data set [3]; 284.7 Å² in data set [5] ([M+Na]+); 274.3 Å² in data set [5] ([M-H]-).

Turning to `O=C1C=C2C(=CCOC2O)O1` (stereo not drawn) [Patulin], the “collision cross section (N2)” value in data set [1] ([M+H3C2O2]-) is 142 Å².

As to `C=C(C)C(=O)/C(=C/C(=O)O)OC` [Penicillic acid], the “collision cross section (N2)” value in data set [1] ([M+H]+) is 131 Å².

Regarding `C[C@H]1CCC[C@H](O)CCC/C=C/c2cc(O)cc(O)c2C(=O)O1` [alpha-zearalenol], the “collision cross section (N2)” value in data set [1] ([M-H]-) came to 173 Å².
